# Assay results taken from patent US11607422B2, “Uttroside B and derivatives thereof as therapeutics for hepatocellular carcinoma” (Rajiv Gandhi Centre for Biotechnology, an Autonomous …, priority 2016, dated 2023).
# Columns and labels:
# [1] = tested on: normal immortalized hepatocytes (Chang Liver); test: MTT assay in normal immortalized hepatocytes; assay type: cell-based; settings: at 1250 nM, 72 h
# Procedure: FIG. 2A is a graph comparison of IC50 of Uttroside B in a panel of cancer cells of different origin. The cancer cell lines HeLa, A375, HepG2, MDA-MB-231, HL 60, A549 and HCT116 were treated with Uttroside B as indicated, incubated for 72 h and the cell viability was assessed by MTT assay. FIG. 2B is a graph showing dose dependent effect of Uttroside B in the liver cancer cell lines and in normal immortalized hepatocytes. The liver cancer cell lines HepG2, Hep3B, SKHEP-1, Huh-7 and normal hepatocytes (Chang liver), were treated with Uttroside B incubated for 72 h and the cell viability was assessed by MTT assay. FIG. 2C is a graph comparison of IC50 of Uttroside B with sorafenib. HepG2 cells were treated with Uttroside B as indicated, incubated for 72 h, and the cell viability was assessed by MTT assay. […] The clones developed were counted and plotted as a graph. Colony containing more than four cells was counted as one clone. […]
# MTT [3-(4,5-dimethylthiazole-2-yl)-2,5-diphenyltetrazolium bromide] assay is a standard colorimetric assay, suitable for analyzing proliferation, viability, and cytotoxicity. […] After overnight incubation, cells were treated with different concentrations of organic extracts (25-250 μg/ml) of S. nigrum and the isolated compound Uttroside B (250-1250 nM) for 72 h and cytotoxicity was measured. […]
# Akt in HepG2 cells = test: Western blot of Akt phosphorylation; assay type: cell-based, human; settings: HepG2, no basal activation of Akt
# Procedure: FIGS. 4A-4E are images showing Uttroside B inhibits MAPK and mTOR signaling, some of the crucial survival signals in liver cancer. […] HepG2 cells were treated with Uttroside B for different time intervals (0-240 min) and the whole cell lysate was resolved on a 10% gel and immunoblotted against phospho-ERK1/2 and phospho-Akt antibodies. Taxol was used as a positive control. […] HepG2 cells were treated with Uttroside B at different time intervals and the whole cell lysate was resolved on an 8% gel and immunoblotted against phospho-mTOR (2448) and phospho-mTOR (2481) antibodies.
# Western blot analysis. Approximately 0.5×10^6 cells were grown on 60 mm culture plates and exposed to drugs as indicated for the desired time. The cells were then scraped out, washed in ice cold 1× PBS and pelleted down at 13000 rpm for 2 min. […]
compound,measurement,setting,value
C[C@H](CC[C@@]1(O)O[C@H]2C[C@H]3[C@@H]4CC[C@H]5C[C@@H](O[C@@H]6O[C@H](CO)[C@H](O[C@@H]7O[C@H](CO)[C@@H](O)[C@H](O[C@@H]8OC[C@@H](O)[C@H](O)[C@H]8O)[C@H]7O[C@@H]7O[C@H](CO)[C@@H](O)[C@H](O)[C@H]7O)[C@H](O)[C@H]6O)CC[C@]5(C)[C@H]4CC[C@]3(C)[C@H]2[C@@H]1C)CO[C@@H]1O[C@H](CO)[C@@H](O)[C@H](O)[C@H]1O [Uttroside B],viable normal immortalized hepatocytes,[1],70%
same,activation of Akt,Akt in HepG2 cells,no significant role in activating Akt pathway
